Patent publication US11452758B2, “Antimicrobial peptide derived from LL37 peptide and uses thereof” (INDUSTRY-ACADEMIC COOPERATION FOUNDATION, CHOSUN UNIVERSITY, priority 2018, dated 2022)
≈ marks a conversion by molar mass, not a printed value. Where a SMILES comes first, the peptide text is derived from it.

How the values were obtained:
[1] = test system: L. monocytogenes KCTC 3710; format: cell-based, Listeria monocytogenes; conditions: KCTC 3710, 18 h
Text: (§1) To compare the antimicrobial activity among the peptides produced by the method of Example 1, the inventors of the present invention measured the minimal growth inhibitory concentration (MIC), which is minimum concentration of the peptide not allowing any […] of bacterial cells.
(§2) Specifically, the bacterial strains described in the following Table 2 were purchased and cultured to a mid-log phase in MHB (Mueller Hinton Broth) medium. Then, after dilution to bacterial cell concentration of 2×10^5 cells/50 μl, the cells were inoculated to a microtiter plate (NUNC, USA). Thereafter, LL37-1, LL37-2, LL37-3 or LL37-4 peptide which has been synthesized in Example 1 above was subjected to serial dilution, ½ times for each, in a 96-well plate. After adding the peptides in an amount of 50 μl to the cell plate, the cells were cultured for 18 hours at 37° C. By using a microtiter plate reader (Merck Elisa reader, Germany), the absorbance was measured at a wavelength of 600 nm to determine the MIC value of each bacterial strain. As a control group, LL37 as a mother peptide was used and subjected to the same process as above to determine the MIC value of each strain.

A. baumannii #10 [2] = format: cell-based, Acinetobacter baumannii; conditions: #10
Text: as §1, §2

A. baumannii #11 = format: cell-based, Acinetobacter baumannii; conditions: #11
Text: as §1, §2

A. baumannii #12 = format: cell-based, Acinetobacter baumannii; conditions: #12
Text: as §1, §2

A. baumannii #13 = format: cell-based, Acinetobacter baumannii; conditions: #13
Text: as §1, §2

A. baumannii #19 = format: cell-based, Acinetobacter baumannii; conditions: #19
Text: as §1, §2

A. baumannii #2 = format: cell-based, Acinetobacter baumannii; conditions: #2
Text: as §1, §2

A. baumannii #3 = format: cell-based, Acinetobacter baumannii; conditions: #3
Text: as §1, §2

A. baumannii #4 = format: cell-based, Acinetobacter baumannii; conditions: #4
Text: as §1, §2

A. baumannii #5 [3] = format: cell-based, Acinetobacter baumannii; conditions: #5
Text: as §1, §2

A. baumannii #8 = format: cell-based, Acinetobacter baumannii; conditions: #8
Text: as §1, §2

A. baumannii #9 = format: cell-based, Acinetobacter baumannii; conditions: #9
Text: as §1, §2

A. baumannii KCTC 2508 [4] = format: cell-based, Acinetobacter baumannii
Text: as §1, §2

A. baumannii #10 [5] = experiment: Antibiofilm activity, Crystal violet staining; format: cell-based, Acinetobacter baumannii; conditions: 24 hours
Experimental: (§3) To compare the antimicrobial activity among the peptides produced by the method of Example 1, the inventors of the present invention measured the biofilm inhibitory concentration value of the peptide for not allowing any dissociation of bacterial cells.
(§4) Specifically, among the bacterial strains described in the above Table 2, bacteria showing the most favorable biofilm forming were cultured to a mid-log phase in a medium with suitable composition. Then, after dilution to bacterial cell concentration of 1×10^6 cells/50 μl, the cells were inoculated to a microtiter plate. Thereafter, LL37, LL37-1, LL37-2, LL37-3 or LL37-4 peptide which has been synthesized in Example 1 above was diluted, 1/10 times for each, with 10 mM phosphate buffered physiological saline (PBS) in a 96-well plate. After adding the peptide (50 μl) to each well of the plate, the cells were cultured for 24 hours at 37° C. After removing the supernatant completely, the cells were fixed with 100% methanol for 15 minutes and stained for 1 hour with Crystal violet staining solution followed by rinsing for 3 times. Then, after dissolving in 95% ethanol, the absorbance was measured at a wavelength of 595 nm by using a microtiter plate reader to determine the biofilm minimal inhibitory concentration value of each bacterial strain.

A. baumannii #5 [6] = experiment: Antibiofilm activity, Crystal violet staining; format: cell-based, Acinetobacter baumannii; conditions: 24 hours
Experimental: as §3, §4

A. baumannii KCTC 2508 [7] = experiment: Antibiofilm activity, Crystal violet staining; format: cell-based, Acinetobacter baumannii; conditions: 24 hours
Experimental: as §3, §4

[8] = test system: Acinetobacter baumannii KCTC 2508; experiment: Low vacuum scanning electron microscopy (membrane-disrupting property); format: cell-based; conditions: peptide at MIC concentration, 30 minutes at 37° C.
Experimental: To specifically determine the degree of antimicrobial activity of the synthesized peptides of the present invention, the influence of mother peptide LL37 and homologous peptides LL37-1, LL37-2, LL37-3 and LL37-4 on bacteria membrane, i.e., membrane-disrupting property, was determined by low vacuum scanning electron microscopy.
Specifically, Acinetobacter baumannii KCTC 2508 cells were cultured to a mid-log phase in MHB medium, and then diluted to a cell concentration of 2×10^7 cells/ml in physiological saline containing 10% MHB medium. […] After that, by using 2.5% glutaraldehyde, the bacterial cells were fixed for 30 minutes at room temperature and then for 12 hours at 4° C. After carrying out washing with buffer, the cells were fixed again with […] and dehydrated in stepwise manner by using ethanol. After the dehydration, platinum coating was carried out and the cells were observed by low vacuum scanning electron microscopy.

For CC[C@H](C)[C@H](NC(=O)[C@H](CCCNC(=N)N)NC(=O)[C@H](CCC(N)=O)NC(=O)[C@@H](NC(=O)[C@@H](NC(=O)[C@H](CCCNC(=N)N)NC(=O)[C@H](CCCCN)NC(=O)[C@H](Cc1ccccc1)NC(=O)[C@H](CCCCN)NC(=O)[C@@H](N)CCCCN)[C@@H](C)CC)C(C)C)C(=O)N[C@@H](CCCCN)C(=O)N[C@@H](CCCCN)C(=O)N[C@@H](Cc1ccccc1)C(=O)N[C@@H](CC(C)C)C(=O)N[C@@H](CCCNC(=N)N)C(=O)N[C@@H](CC(N)=O)C(N)=O [LL37-4, KKFKRIVQRIKKFLRN-NH2] (H-KKFKRIVQRIKKFLRN-NH2; N-terminus assumed), the Minimal inhibitory concentration [1] was 16 µM (≈ 33.6 µg/mL), the Minimal inhibitory concentration (A. baumannii #10 [2]) was 2 µM (≈ 4.2 µg/mL) and the Minimal inhibitory concentration (A. baumannii #11) was 2 µM (≈ 4.2 µg/mL). For the same molecule, the Minimal inhibitory concentration (A. baumannii #12) was 2 µM (≈ 4.2 µg/mL), the Minimal inhibitory concentration (A. baumannii #13) was 2 µM (≈ 4.2 µg/mL) and the Minimal inhibitory concentration (A. baumannii #19) was 4 µM (≈ 8.41 µg/mL). The Minimal inhibitory concentration (A. baumannii #2) was 2 µM (≈ 4.2 µg/mL), the Minimal inhibitory concentration (A. baumannii #3) was 2 µM (≈ 4.2 µg/mL) and the Minimal inhibitory concentration (A. baumannii #4) was 2 µM (≈ 4.2 µg/mL). For the same molecule, the Minimal inhibitory concentration (A. baumannii #5 [3]) was 2 µM (≈ 4.2 µg/mL), the Minimal inhibitory concentration (A. baumannii #8) was 2 µM (≈ 4.2 µg/mL) and the Minimal inhibitory concentration (A. baumannii #9) was 2 µM (≈ 4.2 µg/mL). For the same molecule, the “Minimal inhibitory concentration of antimicrobial peptide” value (A. baumannii KCTC 2508 [4]; KCTC 2508) was 4 µM, the Minimal inhibitory concentration (A. baumannii KCTC 2508 [4]; KCTC 2508, 18 h) was 4 µM (≈ 8.41 µg/mL) and the Biofilm forming ability (A. baumannii #10 [5]; peptide 2 μM) was 49%. It also gave a Biofilm forming ability (A. baumannii #10 [5]; peptide 4 μM) of 37%, a Biofilm forming ability (A. baumannii #10 [5]; peptide 8 μM) of 33% and a Biofilm forming ability (A. baumannii #10 [5]; peptide 16 μM) of 33%. For the same molecule, the Biofilm forming ability (A. baumannii #10 [5]; peptide 32 μM) was 30%, the Biofilm forming ability (A. baumannii #5 [6]; peptide 2 μM) was 74% and the Biofilm forming ability (A. baumannii #5 [6]; peptide 4 μM) was 59%. The Biofilm forming ability (A. baumannii #5 [6]; peptide 8 μM) was 49%, the Biofilm forming ability (A. baumannii #5 [6]; peptide 16 μM) was 22% and the Biofilm forming ability (A. baumannii #5 [6]; peptide 32 μM) was 20%. For the same molecule, the Biofilm forming ability (A. baumannii KCTC 2508 [7]; peptide 2 μM) was 48%, the Biofilm forming ability (A. baumannii KCTC 2508 [7]; peptide 4 μM) was 32% and the Biofilm forming ability (A. baumannii KCTC 2508 [7]; peptide 8 μM) was 28%. For the same molecule, the Biofilm forming ability (A. baumannii KCTC 2508 [7]; peptide 16 μM) was 23%, the Biofilm forming ability (A. baumannii KCTC 2508 [7]; peptide 32 μM) was 22% and the “membrane disruption compared to LL37-1 and LL37-3 (scanning electron microscopy)” value [8] was “disrupted more”. For the same molecule, the “membrane-disrupting property (scanning electron microscopy)” value [8] was “disruption of bacteria membrane”.
